Assay results from patent US9428504B2, “7-hydroxy-spiropipiperidine indolinyl antagonists of P2Y1 receptor” (BRISTOL-MYERS SQUIBB COMPANY, priority 2012, dated 2016).
Where a name gives a salt, the structure may show the parent alone.

What was measured:
[1] = system: human platelet rich plasma (PRP); experiment: ADP induced platelet aggregation assay; details: Homo sapiens, Platelet, read-out: PA IC50 (μM) @ 10 μM ADP, platelet aggregation induced by 10 μM ADP, human PRP
Description: The ability of P2Y1 antagonists covered in the present invention to inhibit platelet aggregation induced by 10 μM ADP was tested using human platelet rich plasma (PRP) as described in Platelet Protocols: Research and Clinical Laboratory Procedures (White, M. M. et al., Academic Press (1999)). Human blood was collected in 30 μM (final concentration in blood) argatroban (GSK) as the anticoagulant at a ratio of 1 ml per 9 ml of blood. The PRP was isolated by centrifugation at 170 g for 12 minutes. The platelet poor plasma (PPP) was used as the blank for optical aggregometry. Compounds of the present invention in DMSO solution was preincubated with 250 μl PRP at 37° C. for 1 minute with stirring speed of 1000 rpm. Aggregation was initiated by addition of 2.5 μl of 1 mM ADP (Chrono-log, Havertown, Pa.) for a final ADP concentration of 10 μM. Platelet aggregation was monitored using Optical Aggregometer (Chrono-log, Havertown, Pa.) and the area under the curve (AUC) at 5 minute was measured. IC50 was calculated using vehicle control as 0% inhibition.

[2] = target: cloned human P2Y1 receptors (Homo sapiens (Human), UniProt P47900); experiment: Binding Assay B: Scintillation Proximity Assay (SPA) for P2Y1 binding; details: SPA, [33P] 2MeS-ADP displacement; read-out: P2Y1 Ki (nM) using binding assay B
cloned human P2Y1 receptors, sequence (P47900 whole entry): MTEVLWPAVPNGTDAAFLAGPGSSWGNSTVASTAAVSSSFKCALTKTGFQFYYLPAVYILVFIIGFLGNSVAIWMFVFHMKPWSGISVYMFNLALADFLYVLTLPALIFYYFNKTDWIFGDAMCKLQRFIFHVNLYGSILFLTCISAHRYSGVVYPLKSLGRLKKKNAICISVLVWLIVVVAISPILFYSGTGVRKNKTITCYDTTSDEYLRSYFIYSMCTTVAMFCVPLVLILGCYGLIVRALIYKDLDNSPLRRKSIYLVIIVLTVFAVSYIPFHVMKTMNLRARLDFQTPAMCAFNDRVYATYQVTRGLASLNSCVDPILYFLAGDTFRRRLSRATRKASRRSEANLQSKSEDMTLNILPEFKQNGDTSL
Outline: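 Membranes with ~15 fmol receptor (1.7 μg total protein) incubated with 0.3 nM [^33P]-labelled radioligand for 1 h at room temperature to completion. After centrifugation and removal of aqueous phase, bound radioactivity read by scintillation proximity; inhibition of radioligand binding measured.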

Structure (SMILES)	IC50 [1]	Ki [2]
CC(C)(C)CN1CCC2(CC1)CN(c1ccccc1NC(=O)Nc1nc3c(s1)COCC3)c1c(O)ccc(Cl)c12 [Example 48, 1-(2-(4-Chloro-7-hydroxy-1′-neopentylspiro[indoline-3,4′-piperidine]-1-yl)phenyl)-3-(6,7-dihydro-4H-pyrano[4,3-d]thiazol-2-yl)urea, TFA]	0.4 µM	8 nM
CC(C)(C)CN1CCC2(CC1)CN(c1ccccc1NC(=O)Nc1nc3c(s1)CSCC3)c1c(O)ccc(Cl)c12 [Example 49, 1-(2-(4-Chloro-7-hydroxy-1′-neopentylspiro[indoline-3,4′-piperidine]-1-yl)phenyl)-3-(6,7-dihydro-4H-thiopyrano[4,3-d]thiazol-2-yl)urea, TFA]	0.3 µM	6.5 nM
COc1nsc(NC(=O)Nc2ccccc2N2CC3(CCN(CC(C)(C)C)CC3)c3c(Cl)ccc(O)c32)n1 [Example 50, 1-(2-(4-Chloro-7-hydroxy-1′-neopentylspiro[indoline-3,4′-piperidine]-1-yl)phenyl)-3-(3-methoxy-1,2,4-thiadiazol-5-yl)urea, TFA]	0.3 µM	6.8 nM
CC(C)(C)CN1CCC2(CC1)CN(c1ccccc1NC(=O)Nc1nc3ccc([N+](=O)[O-])cc3s1)c1c(O)ccc(Cl)c12 [Example 51, 1-(2-(4-Chloro-7-hydroxy-1′-neopentylspiro[indoline-3,4′-piperidine]-1-yl)phenyl)-3-(6-nitrobenzo[d]thiazol-2-yl)urea, TFA]	0.5 µM	10.8 nM
CC(C)(C)CN1CCC2(CC1)CN(c1ccccc1NC(=O)Nc1nc3ccc(OC(F)(F)F)cc3s1)c1c(O)ccc(Cl)c12 [Example 52, 1-(2-(4-Chloro-7-hydroxy-1′-neopentylspiro[indoline-3,4′-piperidine]-1-yl)phenyl)-3-(6-(trifluoromethoxy)benzo[d]thiazol-2-yl)urea, TFA]	0.3 µM	9.2 nM
CC(C)(C)CN1CCC2(CC1)CN(c1ccccc1NC(=O)Nc1nc3ccccc3s1)c1c(O)ccc(Cl)c12 [Example 53, 1-(Benzo[d]thiazol-2-yl)-3-(2-(4-chloro-7-hydroxy-1′-neopentylspiro[indoline-3,4′-piperidine]-1-yl)phenyl)urea, TFA]	0.5 µM	7.5 nM
CC(C)(C)CN1CCC2(CC1)CN(c1ccccc1NC(=O)Nc1ccc(F)cc1F)c1c(O)ccc(Cl)c12 [Example 54, 1-(2-(4-Chloro-7-hydroxy-1′-neopentylspiro[indoline-3,4′-piperidine]-1-yl)phenyl)-3-(2,4-difluorophenyl)urea]	1.1 µM	9.6 nM
CC(C)(C)CN1CCC2(CC1)CN(c1ccccc1NC(=O)Nc1ccc(C(C)(C)C)cc1)c1c(O)ccc(Cl)c12 [Example 55, 1-(4-tert-Butylphenyl)-3-(2-(4-chloro-7-hydroxy-1′-neopentylspiro[indoline-3,4′-piperidine]-1-yl)phenyl)urea]	1 µM	9.7 nM
Cc1ccc(NC(=O)Nc2ccccc2N2CC3(CCN(CC(C)(C)C)CC3)c3c(Cl)ccc(O)c32)cc1F [Example 56, 1-(2-(4-Chloro-7-hydroxy-1′-neopentylspiro[indoline-3,4′-piperidine]-1-yl)phenyl)-3-(3-fluoro-4-methylphenyl)urea]	0.5 µM	6.4 nM
CC(C)CN1CCCC1c1ccc(NC(=O)Nc2ccccc2N2CC3(CCN(CC(C)(C)C)CC3)c3c(Cl)ccc(O)c32)cc1 (stereo not shown) [Example 57, 1-(2-(4-Chloro-7-hydroxy-1′-neopentylspiro[indoline-3,4′-piperidine]-1-yl)phenyl)-3-(4-(1-isobutylpyrrolidin-2-yl)phenyl)urea]	0.2 µM	10.4 nM
CC(C)(C)CN1CCC2(CC1)CN(c1ccccc1NC(=O)Nc1ccc(C3CCCN3CC(C)(C)C)cc1)c1c(O)ccc(Cl)c12 (stereo not shown) [Example 58, 1-(2-(4-Chloro-7-hydroxy-1′-neopentylspiro[indoline-3,4′-piperidine]-1-yl)phenyl)-3-(4-(1-neopentylpyrrolidin-2-yl)phenyl)urea]	0.2 µM	12.4 nM
